Experimental data reported in patent US20250241862A1, “EXOSOMAL COMPOSITIONS INCLUDING ANESTHETICS” (THE BOARD OF TRUSTEES OF THE UNIVERSITY OF ALABAMA, priority 2024, published 2025).
Where a name gives a salt, the structure may show the parent alone. Each block holds one molecule with its values, some of them ahead of it.

How the values were obtained:
[1] = In vitro release of BUP by dialysis; assay type: physicochemical; conditions: dialysis 8-10 kD, 1×PBS pH 7.4, 37° C.; free BUP at 0.5% (w/v) and saturated concentrations
Protocol: To assess the release kinetics of BUP from the BUP@EXO, a dialysis method was employed. Specifically, 1 mL of BUP@EXO, containing 5 mg BUP, was introduced into a Spectra/Por Float-A-Lyzer G2 dialysis bag with a molecular weight cutoff ranging from 8-10 kD (Spectrum Laboratories, Ranchodominguez, CA). This bag was then immersed in 20 mL of phosphate-buffered saline (PBS) with a pH of 7.4. The setup was maintained at 37° C. and subjected to continuous 200 rpm shaking. At specified time points, the dialysis bag was relocated to fresh 1×PBS to ensure a consistent concentration gradient. The concentration of BUP in the dialysate was ascertained by measuring its absorbance at 272 nm and referencing it against a pre-established standard curve. We collected the washout solutions (filtrate) in the lower chambers of centrifugal filters. Subsequently, these solutions underwent UV-Vis spectroscopy to determine the BUP concentration. The encapsulation efficiency is thereby calculated by
We conducted in-depth in vitro drug release kinetic analysis at 37° C. for our BUP@EXO formulations. 1 mL of BUP@EXO in 1×PBS, containing 5 mg BUP, was introduced into a dialysis bag with a molecular weight cutoff ranging from 8-10 kD. The dialysis bag was then immersed in 20 mL of 1×PBS with a pH of 7.4. The setup was maintained at 37° C. and subjected to continuous shaking of 200 rpm. […]

[2] = test system: sciatic nerve; assay: Rat sciatic nerve block, neurobehavioral test (hot plate thermal latency, weight bearing); assay type: in vivo; conditions: for nerve block at injected site (observation): single sciatic nerve injection 0.3 mL
From the text: Adult male Sprague-Dawley rats (Charles River Laboratories, Wilmington, MA) weighing 250-350 g were housed in groups, in a 6 am-6 pm light-dark cycle. Animals were cared for in accordance with protocols approved by the Institutional Animal Care and Use Committee of the University of Alabama (Protocol ID: 19-11-2992), and the Guide for the Care and Use of Laboratory Animals of the US National Research Council.
Nerve block injections were meticulously executed utilizing a 23-gauge needle, with rats being anesthetized under a combination of isoflurane and oxygen. […] Additionally, injections of free BUP were given at doses of 0.75 mg and 1.5 mg. A control group received an injection of 50 μg of empty exosomes. The injection technique involved positioning the needle posteromedially to the greater trochanter and directing it anteromedially. Upon making contact with the bone, the prepared solution was administered.
Subsequently, the rats underwent neurobehavioral test to determine the duration of functional deficits (i.e., sensory and motor nerve blockade) in both hind paws. The duration of deficits on the injected side (left, ipsilateral) reflected the duration of nerve block. Any deficits observed on the uninjected side (right, contralateral) were indicative of the systemic BUP distribution.
The efficacy of the nerve block was assessed at specified intervals using established methodologies. Sequentially, the left and then the right hind paws of the rats were subjected to a 56° C. hot plate (model 39D Hot Plate Analgesia meter; IITC Inc., Woodland Hills, CA). The duration until the paw was withdrawn, termed thermal latency, was meticulously recorded. […] Thermal latency serves as an indicator of analgesic potency. […] For a systemic effect baseline, latency was also gauged in the non-injected leg. The duration of the thermal nociceptive block was determined as the time taken for the thermal latency to revert from an elevated value to a baseline of 7 seconds. In adult rats, this 7-second threshold represents the median between the maximum block and the typical thermal latency, which is roughly 2 seconds, with the upper limit being 12 seconds. Motor function was evaluated by suspending the animal over a balance and recording the maximum weight the animal could bear. The duration of motor blockade was determined as the period until weight-bearing capacity returned to half of its normal level from the point of maximal block. For each rat, the halfway point was calculated as [(highest weight borne by either leg)−(lowest weight borne by the blocked leg)]/2+the lowest weight borne by the blocked leg.

[3] = test system: muscle at the injection site; assay: Muscle histology (H&E) inflammation and myotoxicity scoring; assay type: in vivo, rat
From the text: Following euthanasia, the sciatic nerve and adjacent muscle tissues were meticulously extracted. Muscle specimens underwent processing to yield slides stained with hematoxylin and eosin. A macroscopic dissection score was assigned based on the following criteria: 0=tissue planes obvious and easily separated; 1=tissue planes obvious but separated with some difficulty; 2=tissue planes adherent and separated with some difficulty; 3=tissue planes completely obliterated, could not separate surrounding tissues from nerve without cutting through them. Muscle samples underwent evaluation for inflammation (on a scale of 0-4) and myotoxicity (on a scale of 0-6). The inflammation score was a subjective measure of its severity. The myotoxicity score was based on two hallmark features of local anesthetic-induced myotoxicity: nuclear internalization and regeneration. […] Regeneration manifests as contracted myocytes with basophilic cytoplasm. The scoring was as follows: 0=normal; 1=perifascicular internalization; 2=deep internalization (>5 cell layers), 3=perifascicular regeneration, 4=deep regeneration, 5=hemifascicular regeneration, 6=holofascicular regeneration.
The sciatic nerve and surrounding tissues were harvested, sectioned, and stained for histologic assessment. Muscle tissues were processed for hematoxylin-eosin (H&E) staining. The myotoxicity and inflammation were quantified using a previously reported scoring system (Table 1, Table 2).

[4] = test system: sciatic nerve; assay: Sciatic nerve histology (toluidine blue) for neurotoxicity; assay type: in vivo, rat
From the text: For nerve injury histology, samples underwent Epon-embedding and fixation using Karnovsky's KII Solution, which comprises 2.5% glutaraldehyde, 2.0% paraformaldehyde, and 0.025% calcium chloride in a 0.1 M sodium cacodylate buffer with a pH of 7.4. Subsequently, samples were post-fixed using osmium tetroxide, stained with uranyl acetate, and then dehydrated through a series of ethanol solutions. This was followed by infiltration with mixtures of propylene oxide and Epon. Sections, with a thickness of 0.5 μm, were then stained using toluidine blue, facilitating high-resolution light microscopy examination.
Epon-embedded sections of the sciatic nerve were stained with toluidine blue. […] Furthermore, when 2.5 mg free BUP was injected, 3 out of 4 tissues presented significant nerve degeneration, which is determined by the density decrease of nerve fibers within the nerve section (FIG. 6b).

[5] = test system: Creatine Kinase (CK-total, CK-MB) activity in serum; assay: Serum creatine kinase activity (CK-total, CK-MB), cardiotoxicity; assay type: in vivo, rat; conditions: 48 hours after injection
Protocol: In another experiment, rats were euthanized at the 48-hour mark. Blood samples were meticulously collected through two methods: a cardiac puncture, which involves drawing blood directly from the heart, and a separate collection from the femoral artery. Once collected, the blood samples were subjected to centrifugation, a process that separates the serum from other blood components. The isolated serum was then analyzed for creatine kinase activity using a colorimetric assay kit for creatine kinase activity. The intensity was quantified using a plate-reader, an instrument that measures absorbance levels.
It is important to recognize that the side effects of BUP and other local anesthetics go beyond just localized tissue reactions. A major concern with administering BUP is its potential harmful cardiotoxic effects. This can be particularly severe in certain instances, such as arrhythmias and cardiac asystole. Cardiotoxicity can be observed through increased activity of Creatine Kinase(CK), an family of enzymes that is released into the blood in response to lesions in contractile fibers, serve as biochemical markers for muscle damage, including myocardial injury. Elevated activity levels of CK, especially its cardiomyocyte isoform—Creatine Kinase-Myocardial Band (CK-MB), can be a warning sign for serious outcomes such as cardiac arrhythmias, heart failure, and other cardiovascular complications.
Two types of samples were obtained: from the femoral artery and cardiac puncture. These samples were analyzed to evaluate the activity in serum of total CK (CK-total) and its cardiomyocyte isoform (CK-MB).

[6] = osmotic shock method; cited from earlier work

cumulative release within initial 5-hour period [1]: near-complete cumulative release | contralateral nerve blockade (systemic distribution) ([2]; 0.75 mg BUP equivalent, uninjected side): no contralateral nerve blockade | contralateral nerve blockade (systemic distribution) ([2]; 1.5 mg BUP equivalent, uninjected side): no contralateral nerve blockade | occurrence of drowsiness ([2]; 2.5 mg BUP): 3 out of 4 animals | contralateral sensory nerve blockade (systemic distribution) ([2]; 2.5 mg BUP equivalent, uninjected side): 3 out of 4 animals | contralateral thermal latency ([2]; 2.5 mg BUP, uninjected side, 56° C. hot plate): ~7 s
Structure (SMILES): CCCCN1CCCCC1C(=O)Nc1c(C)cccc1C (stereo not shown) [free BUP, Bupivacaine Hydrochloride]
success rate of nerve blockade ([2]; 0.75 mg BUP equivalent): 0% | nerve block at injected site (observation) ([2]; 0.75 mg BUP in PBS): neither a detectable nerve block nor toxicity | duration of motor blockade ([2]; 1.5 mg BUP equivalent): 0.458 ± 0.176 h | duration of sensory nerve blockade ([2]; 1.5 mg BUP equivalent): 1.833 ± 0.250 h | nerve block at injected site (observation) ([2]; 1.5 mg BUP in PBS): successfully induced nerve block at the injected sites in all animals | duration of motor blockade ([2]; 2.5 mg BUP equivalent): 2.12 ± 0.54 h | duration of sensory nerve blockade ([2]; 2.5 mg BUP equivalent): 2.75 ± 0.43 h | myotoxicity score (scale 0-6) ([3]; 1.5 mg, 4 days, 1 of 4 rats): 2 | inflammation score (out of 4) ([3]; 2.5 mg, 48 hours): up to 3 | myotoxicity score (out of 6) ([3]; 2.5 mg, 48 hours): up to 3 | tissues with signs of neurotoxicity ([4]; 1.5 mg, 48 hours): 1 out of 4 | tissues with significant nerve degeneration ([4]; 2.5 mg): 3 out of 4 | Creatine Kinase activity profiles (CK-total, CK-MB) vs blank control ([5]; 0.75 mg): did not result in significant alteration | CK activity vs blank control ([5]; 1.5 mg): considerable elevation in CK activity | CK activity vs blank control ([5]; 2.5 mg): considerable elevation in CK activity

Structure (SMILES): CC(=O)CCCCn1c(=O)c2c(ncn2C)n(C)c1=O [pentoxifylline]
encapsulation efficiency (drug per protein-equivalent exosomes) [6]: 0.85 μg of drug per μg of protein-equivalent exosomes
